Data from PMC7395062, “Multiparametric assessment of mitochondrial respiratory inhibition in HepG2 and RPTEC/TERT1 cells using a panel of mitochondrial targeting agrochemicals” (Archives of Toxicology, 2020).
Where two headings read alike, the source gives them in different places.

What was measured:
Type in all cases: cell-based, human
[1] = system: RPTEC/TERT1 cells; assay: Resazurin reduction viability assay, RPTEC/TERT1; conditions: RPTEC/TERT1
Experimental: These cells were obtained under licence from Evercyte GmBH, Vienna Austria. […] For experiments, cells were plated in a required format plate, allowed to become contact-inhibited and fed 24 h prior to treatment exposure. For experiments in galactose condition, cells were fed 24 h prior to experiment with culture medium (custom made DMEM/F12, PromoCell) in which 5 mM glucose was replaced with 5 mM galactose (Merck, G5388).
(§1) The conversion of resazurin to fluorescent resorufin was measured in a plate reader at excitation/emission 540/590 nm.
(§2) All results are average of 2–3 independent experiments.

[2] = system: HepG2 cells; assay: Resazurin reduction viability assay, 2D HepG2
Experimental: (§3) The HepG2 cell line, a human hepatocellular carcinoma, was obtained from ATCC (American Type Culture Collection, Wesel, Germany). […] Cells were maintained at 37 °C in a 5% CO2 humidified atmosphere, fed every 2 to 3 days and passaged at approximately 80% confluence. […] For galactose experiments, the medium was refreshed 24 h before exposure with galactose-containing medium. […] Culture medium was refreshed every 3–4 days and the culture was maintained for 21 days prior to dosing.
as §1, §2

[3] = system: HepG2 3D spheroids; assay: Cell death assay (PI staining) in 3D cultured HepG2 spheroids; conditions: for EC50: Homo sapiens, HepG2, 24 h; for Effect of repeated exposure (5 × 24 h vs 1 × 24 h) on toxic sensitivity: 3D HepG2 spheroids
Experimental: as §3
At day 21, the culture medium was replaced by fresh medium containing the compounds in the desired concentration. […] For the repeat exposure scenario, Hoechst was added to the 4th exposure and PI to the 5th exposure. […] The confocal imaging was performed using a Nikon TiE2000 with perfect focus system and XY-stage (Nikon, Amsterdam, The Netherlands). Quantification of the Hoechst and PI signal localization was performed using Nis Elements Analysis software. First, a max projection was created of all z-stacks. The overlapping areas between Hoechst and PI in the projection picture were assessed based on a manually curated intensity threshold. Finally, the fraction of spheroids positive for PI staining was determined.
as §2

[4] = system: CII/CIII (succinate dehydrogenase / cytochrome bc1 complex); conditions: permeabilised HepG2; sequential substrates/inhibitors
Experimental: The test compound is injected and OCR is measured. […] OCR is measured for the second time. […] A third and final OCR measurement is conducted.
Compounds were injected sequentially and OCR was measured twice. […] ETC inhibition is determined in decreased OCR.
as §2

[5] = read-out: EC50 cell death 3D HepG2, 1 × 24 h exposure
[6] = read-out: EC50 cell death 3D HepG2, 5 × 24 h exposure

Row | Structure (SMILES) | Statistical significance, Viability Glucose settings Resazurin ([1]; f = 0.4 µM) | Statistical significance, Viability Glucose settings Resazurin ([1]; g = 7 µM) | Statistical significance, Viability Glucose settings Resazurin ([1]; h = 10 µM) | Statistical significance, Viability Galactose settings Resazurin ([2]; HepG2, galactose, d = 0.016 µM) | Statistical significance, Viability Galactose settings Resazurin ([2]; HepG2, galactose, e = 0.08 µM) | Statistical significance, Viability Galactose settings Resazurin ([2]; HepG2, galactose, f = 0.4 µM) | Statistical significance, Viability Galactose settings Resazurin ([2]; HepG2, galactose, g = 7 µM) | Statistical significance, Viability Galactose settings Resazurin ([2]; HepG2, galactose, h = 10 µM) | EC50 [3, 5] [nM] | EC50 [3, 6] [nM] | Effect on resazurin reduction / viability ([2]; up to 10 µM, 24 h exposure, glucose) | ETC-complex specificity pattern (CII/CIII) [4] | Statistical significance, Viability Galactose settings Resazurin ([1]; g = 7 µM) | Statistical significance, Viability Galactose settings Resazurin ([1]; h = 10 µM) | Statistical significance, Viability Galactose settings Resazurin [2] | Effect of repeated exposure (5 × 24 h vs 1 × 24 h) on toxic sensitivity [3] | Statistical significance, Viability Galactose settings Resazurin ([1]; f = 0.4 µM) | Statistical significance, Viability Glucose settings Resazurin ([2]; HepG2, glucose, h = 10 µM) | Statistical significance, Viability Galactose settings Resazurin ([1]; e = 0.08 µM)
1 | CC(C)(C)c1ccc(CSc2cnn(C(C)(C)C)c(=O)c2Cl)cc1 [Pyridaben] | * (*p < 0.05 (Tables 3, 4)) | * (*p < 0.05 (Tables 3, 4)) | * (*p < 0.05 (Tables 3, 4)) | * (*p < 0.05 (Tables 3, 4)) | * (*p < 0.05 (Tables 3, 4)) | * (*p < 0.05 (Tables 3, 4)) | * (*p < 0.05 (Tables 3, 4)) | * (*p < 0.05 (Tables 3, 4)) | – | – | – | – | – | – | – | – | – | – | –
2 | C=C(C)[C@H]1Cc2c(ccc3c2O[C@@H]2COc4cc(OC)c(OC)cc4[C@@H]2C3=O)O1 [Rotenone] | – | – | – | – | – | – | – | – | 127 | 28 | mildly affected the viability | – | – | – | – | – | – | – | –
3 | CSC1=N[C@@](C)(c2ccccc2)C(=O)N1Nc1ccccc1 [Fenamidone] | – | – | – | – | – | – | – | * (*p < 0.05 (Tables 3, 4)) | – | – | – | only partially rescued with ascorbate/TMPD | – | – | – | – | – | – | –
4 | CO/C=C(/C(=O)OC)c1ccccc1Oc1cc(Oc2ccccc2C#N)ncn1 [Azoxystrobin] | – | – | * (*p < 0.05 (Tables 3, 4)) | – | – | – | * (*p < 0.05 (Tables 3, 4)) | * (*p < 0.05 (Tables 3, 4)) | – | – | – | only partially rescued with ascorbate/TMPD | * (*p < 0.05 (Tables 3, 4)) | * (*p < 0.05 (Tables 3, 4)) | – | – | – | – | –
5 | CO/N=C(/C(=O)OC)c1ccccc1COc1ccccc1C [Kresoxim-methyl] | – | – | – | – | – | – | – | – | – | – | – | – | – | – | * (key: *p < 0.05 (Tables 3, 4)) | – | – | – | –
6 | COC(=O)N(OC)c1ccccc1COc1ccn(-c2ccc(Cl)cc2)n1 [Pyraclostrobin] | – | * (*p < 0.05 (Tables 3, 4)) | * (*p < 0.05 (Tables 3, 4)) | – | – | * (*p < 0.05 (Tables 3, 4)) | * (*p < 0.05 (Tables 3, 4)) | * (*p < 0.05 (Tables 3, 4)) | – | – | – | conformed to this pattern | * (*p < 0.05 (Tables 3, 4)) | * (*p < 0.05 (Tables 3, 4)) | – | increased the toxic sensitivity | * (*p < 0.05 (Tables 3, 4)) | * (*p < 0.05 (Tables 3, 4)) | –
7 | CC(C)(C)c1ccc(CCOc2ncnc3ccccc23)cc1 [Fenazaquin] | – | * (*p < 0.05 (Tables 3, 4)) | * (*p < 0.05 (Tables 3, 4)) | – | * (*p < 0.05 (Tables 3, 4)) | * (*p < 0.05 (Tables 3, 4)) | * (*p < 0.05 (Tables 3, 4)) | * (*p < 0.05 (Tables 3, 4)) | – | – | – | – | – | – | – | – | – | – | –
8 | CCc1nn(C)c(C(=O)NCc2ccc(C(C)(C)C)cc2)c1Cl [Tebufenpyrad] | – | * (*p < 0.05 (Tables 3, 4)) | * (*p < 0.05 (Tables 3, 4)) | – | * (*p < 0.05 (Tables 3, 4)) | * (*p < 0.05 (Tables 3, 4)) | * (*p < 0.05 (Tables 3, 4)) | * (*p < 0.05 (Tables 3, 4)) | – | – | – | – | – | – | – | increased the toxic sensitivity | – | * (*p < 0.05 (Tables 3, 4)) | –
9 | CO/C=C(/C(=O)OC)c1ccccc1COc1cccc(C(F)(F)F)n1 [Picoxystrobin] | – | – | * (*p < 0.05 (Tables 3, 4)) | – | – | * (*p < 0.05 (Tables 3, 4)) | * (*p < 0.05 (Tables 3, 4)) | * (*p < 0.05 (Tables 3, 4)) | – | – | – | conformed to this pattern | * (*p < 0.05 (Tables 3, 4)) | * (*p < 0.05 (Tables 3, 4)) | – | increased the toxic sensitivity | – | – | –
10 | CON=C(C(=O)OC)c1ccccc1CON=C(C)c1cccc(C(F)(F)F)c1 [Trifloxystrobin] | – | – | * (*p < 0.05 (Tables 3, 4)) | – | – | * (*p < 0.05 (Tables 3, 4)) | * (*p < 0.05 (Tables 3, 4)) | * (*p < 0.05 (Tables 3, 4)) | – | – | – | conformed to this pattern | – | – | – | – | – | – | –
11 | CCOCCc1ccc(OCCN=c2[nH]cnc(CC)c2Cl)c(C)c1C [Pyrimidifen] | – | * (*p < 0.05 (Tables 3, 4)) | * (*p < 0.05 (Tables 3, 4)) | * (*p < 0.05 (Tables 3, 4)) | * (*p < 0.05 (Tables 3, 4)) | * (*p < 0.05 (Tables 3, 4)) | * (*p < 0.05 (Tables 3, 4)) | * (*p < 0.05 (Tables 3, 4)) | – | – | – | – | – | – | – | – | – | – | –
12 | CCCCCC[C@H]1C(=O)O[C@H](C)[C@H](NC(=O)c2cccc(NC=O)c2O)C(=O)O[C@@H](C)[C@@H]1OC(=O)CC(C)C [Antimycin A] | – | * (*p < 0.05 (Tables 3, 4)) | * (*p < 0.05 (Tables 3, 4)) | * (*p < 0.05 (Tables 3, 4)) | * (*p < 0.05 (Tables 3, 4)) | * (*p < 0.05 (Tables 3, 4)) | * (*p < 0.05 (Tables 3, 4)) | * (*p < 0.05 (Tables 3, 4)) | > 10000 | 74 | – | conformed to this pattern | * (*p < 0.05 (Tables 3, 4)) | * (*p < 0.05 (Tables 3, 4)) | – | increased the toxic sensitivity | * (*p < 0.05 (Tables 3, 4)) | – | * (*p < 0.05 (Tables 3, 4))
